How the values were obtained:
[1] = In vitro inhibition of linoleic acid lipid peroxidation (AAPH); conditions: 100 μM; anti-lipid peroxidation
Text: In the present study, the aim was to evaluate the anti-lipid peroxidation activities of the synthesized compounds 5a–i, 6a–i, 9a–i, and 11 and compare their efficacy to that of Trolox, a well-known antioxidant. Using the water-soluble compound 2,2′-azobis(2-amidinopropane) hydrochloride (AAPH), peroxyl radicals are generated through spontaneous thermal decomposition in vitro. This experimental setup imitated the lipid peroxidation processes occurring in cells due to radical activity allowing the investigation of the effectiveness of the tested compounds under conditions resembling cellular oxidative stress.
An in vitro assay was performed following previously established protocols. The compound 2,2′-Azobis(2-methylpropionamidine) dihydrochloride (AAPH) was used as a controlled source of thermally generated alkylperoxy free radicals. The formation of conjugated diene hydroperoxides through the oxidation of sodium linoleate in an aqueous dispersion at 37 °C was measured by monitoring absorbance at 234 nm. The results were compared with the reference compound, Trolox (93%) (Table 6).

[2] = In vitro determination of NO release with Griess reagent; conditions: 100 μM, L-cysteine, pH 7.4, 37 °C, 60 min
Text: This assay evaluates the ability of nitrate esters to release nitric oxide (NO). First, sodium nitroprusside (SNP) reacts with the thiol compound, cysteine, which serves as a reducing agent (Scheme 5). The thiol donates electrons, facilitating the breakdown of the nitroprusside complex. Afterwards, the reaction leads to the formation of intermediate complexes, such as nitrosothiol species and the decomposition of these intermediates results in the release of nitric oxide (NO). According to the literature, measurements are conducted both in the presence and absence of the thiol agent, cysteine. No significant difference was observed between the two experimental conditions, and the results were reproducible. Sodium nitroprusside (SNP) was used as the reference compound [65].
The compounds (from a 10 mM stock solution in DMSO, final concentration 100 μM) are added (20 μL) to each test tube. Then, 2 mL of phosphate buffer solution (pH 7.4) is added. L-cysteine, used as the thiol agent, is added to the mixture at a final concentration of 0.5 mM. The solution is incubated at 37 °C for 60 min, after which 1 mL is removed and mixed with 250 μL of Griess reagent (4 g sulfanilamide, 0.2 g N-(1-naphthyl)-ethylenediamine dihydrochloride, and 10 mL of H3PO4 solution, final volume adjusted to 100 mL). The mixture is allowed to stand for 10 min at room temperature, and the absorbance of the produced compound is measured at 540 nm. Sodium nitroprusside (SNP) is used as the reference compound. The results are presented as the release of NO2^− (% NO2^− (mol/mol)) induced by the compounds in the presence of L-cysteine (Table 6).

bovine serum albumin = target: T1, bovine serum albumin (Bos taurus, UniProt P02769); assay: In vitro inhibition of albumin denaturation; conditions: heat denaturation, 60 °C 10 min
T1 construct: bovine serum albumin solution (fraction V); purchased Merck and Sigma-Aldrich; host or cells: bovine serum (fraction V)
Experimental: The ability of a compound to inhibit the thermal denaturation of albumin is considered an indicator of anti-inflammatory activity. Heat exposure simulates conditions of cellular stress or inflammation, during which protein and tissue damage occur. Certain substances can protect proteins from denaturation upon heating by stabilizing their structure and preventing aggregation and precipitation.
Inhibition of albumin denaturation was measured following the reported method. In a test tube, 1 mL of bovine serum albumin solution (fraction V, 1% w/v in phosphate buffer, pH 7.4) and 100 μL of the test compound solution were added sequentially. The mixture was incubated at 37 °C for 15 min, followed by heating at 60 °C for 10 min. After cooling to room temperature, the absorbance was measured at 660 nm. DMSO was used as the blank, and the results were compared to acetylsalicylic acid, which served as the reference compound (Table 6).

[3] = target: T2, soybean lipoxygenase isoenzyme-1 (SLOX-1) (Glycine max, UniProt P08170); assay: In vitro inhibition of soybean lipoxygenase; assay type: biochemical; conditions: for IC50: pH 9.0, read-out: LOX Inh. IC50; for LOX Inh. IC50: pH 9.0
T2 construct: purchased Merck and Sigma-Aldrich
T2 sequence (P08170 1-839): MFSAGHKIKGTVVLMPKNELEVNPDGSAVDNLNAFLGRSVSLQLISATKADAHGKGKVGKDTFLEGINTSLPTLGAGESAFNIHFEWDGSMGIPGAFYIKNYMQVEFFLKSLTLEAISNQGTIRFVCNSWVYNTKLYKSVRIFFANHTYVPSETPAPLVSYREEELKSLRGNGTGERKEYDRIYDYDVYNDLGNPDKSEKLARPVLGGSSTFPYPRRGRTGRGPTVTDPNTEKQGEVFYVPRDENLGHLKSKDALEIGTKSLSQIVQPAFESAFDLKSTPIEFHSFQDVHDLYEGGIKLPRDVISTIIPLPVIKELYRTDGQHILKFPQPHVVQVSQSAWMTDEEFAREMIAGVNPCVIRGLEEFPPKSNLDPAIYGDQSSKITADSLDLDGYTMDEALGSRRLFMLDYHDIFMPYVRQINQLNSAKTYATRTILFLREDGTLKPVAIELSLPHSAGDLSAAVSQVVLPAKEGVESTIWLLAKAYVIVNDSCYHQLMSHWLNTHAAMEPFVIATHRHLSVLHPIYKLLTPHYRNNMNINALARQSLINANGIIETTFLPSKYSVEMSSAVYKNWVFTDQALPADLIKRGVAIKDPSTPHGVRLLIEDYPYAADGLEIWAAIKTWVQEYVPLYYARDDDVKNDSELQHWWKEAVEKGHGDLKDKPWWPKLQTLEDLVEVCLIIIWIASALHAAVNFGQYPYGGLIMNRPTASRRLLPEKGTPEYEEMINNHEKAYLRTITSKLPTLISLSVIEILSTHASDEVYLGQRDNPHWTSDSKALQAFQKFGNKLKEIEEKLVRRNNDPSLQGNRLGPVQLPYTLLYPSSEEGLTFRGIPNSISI
Experimental: In vitro anti-LOX activities were evaluated using soybean lipoxygenase isoenzyme-1 (SLOX-1), a commonly used model for mammalian LOXs.
An in vitro study was conducted following a previously reported method. The tested compounds were dissolved in DMSO (100 µM) and incubated at room temperature with 0.1 mL of sodium linoleate as the substrate and 0.2 mL of soybean lipoxygenase solution in Tris-HCl buffer (pH 9.0).

ovine COX-2 = target: T3, ovine COX-2 (Ovis aries, UniProt P79208); assay: In vitro inhibition of ovine cyclooxygenase-2
T3 sequence (P79208 17-603): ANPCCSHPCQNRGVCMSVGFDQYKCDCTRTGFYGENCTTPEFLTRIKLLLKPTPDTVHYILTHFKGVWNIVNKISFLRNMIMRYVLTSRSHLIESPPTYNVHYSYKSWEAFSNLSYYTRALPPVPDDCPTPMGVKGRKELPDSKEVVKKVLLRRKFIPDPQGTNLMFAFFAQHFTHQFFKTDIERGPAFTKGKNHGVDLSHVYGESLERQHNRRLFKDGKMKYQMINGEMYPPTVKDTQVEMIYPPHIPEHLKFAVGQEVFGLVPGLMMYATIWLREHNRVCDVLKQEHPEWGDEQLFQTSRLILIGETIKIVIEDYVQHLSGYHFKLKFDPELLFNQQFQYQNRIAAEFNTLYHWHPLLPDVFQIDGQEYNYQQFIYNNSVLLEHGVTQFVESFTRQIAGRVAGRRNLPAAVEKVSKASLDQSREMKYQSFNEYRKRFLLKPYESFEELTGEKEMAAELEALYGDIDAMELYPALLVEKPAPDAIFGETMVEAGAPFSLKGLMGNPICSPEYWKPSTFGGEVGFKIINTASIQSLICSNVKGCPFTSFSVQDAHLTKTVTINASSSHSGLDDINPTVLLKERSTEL
Experimental: In order to prevent this in the in vitro experiment used for testing COX inhibition activity of the new molecules, a co-substrate like N,N,N′,N′-tetramethyl-p-phenylenediamine (TMPD) is included, as it undergoes co-oxidation by PGG2. The oxidized TMPD has a maximum absorbance at 590 nm. […] To ensure maximum enzyme activity, heme is added to the reaction mixture during the in vitro assay for ovine COX-2 inhibition and COX-1 inhibition [63].
The in vitro COX-2 inhibitory activity was assessed using arachidonic acid (AA) as a substrate and N,N,N′,N′-tetramethyl-p-phenylenediamine (TMPD) as a co-substrate in a Tris-HCl buffer (pH 8.5), following the reported method [89]. To the test tube, 10 µL of the compound dissolved in DMSO was added to a mixture containing 730 µL of Tris-HCl buffer (pH 8.5), 50 µL of heme, 10 µL of COX-2 enzyme, and 100 µL of TMPD. The absorbance was measured at 590 nm. […] A blank determination was conducted as a negative control.

T1 sequence (P02769 25-607): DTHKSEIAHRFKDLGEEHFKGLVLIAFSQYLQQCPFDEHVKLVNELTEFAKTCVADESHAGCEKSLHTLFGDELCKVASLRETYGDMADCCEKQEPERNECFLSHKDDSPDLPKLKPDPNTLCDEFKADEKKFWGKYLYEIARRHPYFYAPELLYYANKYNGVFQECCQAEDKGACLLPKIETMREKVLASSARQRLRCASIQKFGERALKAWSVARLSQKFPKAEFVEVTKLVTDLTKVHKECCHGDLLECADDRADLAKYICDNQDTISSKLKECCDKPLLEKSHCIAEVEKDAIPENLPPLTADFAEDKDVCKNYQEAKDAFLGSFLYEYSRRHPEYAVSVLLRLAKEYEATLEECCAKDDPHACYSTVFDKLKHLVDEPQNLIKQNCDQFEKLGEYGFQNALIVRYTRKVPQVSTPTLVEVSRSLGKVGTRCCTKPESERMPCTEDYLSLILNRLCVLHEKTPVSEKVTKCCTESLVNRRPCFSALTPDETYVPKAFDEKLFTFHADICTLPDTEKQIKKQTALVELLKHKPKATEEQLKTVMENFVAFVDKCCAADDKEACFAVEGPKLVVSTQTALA

Row | SMILES | Albumin (inhibition of albumin denaturation) (bovine serum albumin) | IC50 [3] [µM] | COX-2 Inh. IC50 (ovine COX-2) | LOX Inh. IC50 [3] | IC50 (ovine COX-2) [µM] | AAPH Inh. at 100 μΜ [1] | %NO2^− Release mol/mol at 100 μΜ [2]
1 | O=C(C=Cc1ccccc1)OCc1c(-c2ccccc2)no[n+]1[O-] [Compound 9a, 3-((Cinnamoyloxy)methyl)-4-phenyl-1,2,5-oxadiazole 2-oxide] | no | 3.5 | no |  |  | 91.6% | 20%
2 | O=C(C=Cc1cccc2ccccc12)OCc1c(-c2ccccc2)no[n+]1[O-] [Compound 9b, 3-(((3-(Naphthalen-1-yl)acryloyl)oxy)methyl)-4-phenyl-1,2,5-oxadiazole 2-oxide] | no |  | no | no |  | 84% | 1.2%
3 | C/C(=N\O)c1ccc(NC(=O)COC(=O)/C=C/c2cc3ccccc3o2)cc1 [Compound 6f, 2-((4-((E)-1-(Hydroxyimino)ethyl)phenyl)amino)-2-oxoethyl (E)-3-(benzofuran-2-yl)acrylate] | no | 61 | no |  |  | no | 0.3%
4 | C/C(=N\O)c1ccc(NC(=O)COC(=O)/C(=C/c2cccc3ccccc23)c2ccccc2)cc1 [Compound 6h, 2-((4-((E)-1-(Hydroxyimino)ethyl)phenyl)amino)-2-oxoethyl (E)-3-(naphthalen-1-yl)-2-phenylacrylate] | no | 62.5 |  |  |  | 97.7% | no activity and no
5 | C/C(=N\O)c1ccc(NC(=O)COC(=O)/C=C/c2cc3ccccc3s2)cc1 [Compound 6e, 2-((4-((E)-1-(Hydroxyimino)ethyl)phenyl)amino)-2-oxoethyl (E)-3-(benzo[b]thiophen-2-yl)acrylate] | 63% |  | no | no |  | no | 1.1%
6 | C/C(=N\O)c1ccc(NC(=O)COC(=O)C=Cc2ccccc2)cc1 [Compound 6a, 2-((4-((E)-1-(Hydroxyimino)ethyl)phenyl)amino)-2-oxoethyl cinnamate] | no | 50 |  |  | 100 | 50.2% | no activity and no
7 | O=C(/C=C/c1cccs1)OCc1c(-c2ccccc2)no[n+]1[O-] [Compound 9c, (E)-4-Phenyl-3-(((3-(thiophen-2-yl)acryloyl)oxy)methyl)-1,2,5-oxadiazole 2-oxide] | no |  | no | no |  | 73.3% | 1.2%
8 | O=C(/C=C/c1ccco1)OCc1c(-c2ccccc2)no[n+]1[O-] [Compound 9d, (E)-3-(((3-(Furan-2-yl)acryloyl)oxy)methyl)-4-phenyl-1,2,5-oxadiazole 2-oxide] | no | 63 | no |  |  | 78% | no
9 | C/C(=N\O)c1ccc(NC(=O)COC(=O)/C=C/c2cccc3ccccc23)cc1 [Compound 6b, 2-((4-((E)-1-(Hydroxyimino)ethyl)phenyl)amino)-2-oxoethyl (E)-3-(naphthalen-1-yl)acrylate] | no | 60 | no |  |  | 94% | 1.1%

Continued, in another order:

Row | Albumin (inhibition of albumin denaturation) (bovine serum albumin) | IC50 [3] [µM] | COX-2 Inh. IC50 (ovine COX-2) | LOX Inh. IC50 [3] | IC50 (ovine COX-2) [µM] | SMILES | AAPH Inh. at 100 μΜ [1] | %NO2^− Release mol/mol at 100 μΜ [2]
10 | no | 70 | no |  |  | O=C(/C=C/c1cc2ccccc2o1)OCc1c(-c2ccccc2)no[n+]1[O-] [Compound 9f, (E)-3-(((3-(Benzofuran-2-yl)acryloyl)oxy)methyl)-4-phenyl-1,2,5-oxadiazole 2-oxide] | 97% | no
11 | 10% |  | no | no |  | C/C(=N\O)c1ccc(NC(=O)COC(=O)/C=C/c2ccco2)cc1 [Compound 6d, 2-((4-((E)-1-(Hydroxyimino)ethyl)phenyl)amino)-2-oxoethyl (E)-3-(furan-2-yl)acrylate] | 54% | 0.2%
12 | no | 44 |  |  |  | C/C(=N\O)c1ccc(NC(=O)COC(=O)/C(=C/c2ccccc2)c2ccccc2)cc1 [Compound 6g, 2-((4-((E)-1-(Hydroxyimino)ethyl)phenyl)amino)-2-oxoethyl (E)-2,3-diphenylacrylate] | 89% | no activity and no
13 | no | 10 | no |  |  | O=C(OCc1c(-c2ccccc2)no[n+]1[O-])/C(=C/c1cccc2ccccc12)c1ccccc1 [Compound 9h, (E)-3-(((3-(Naphthalen-1-yl)-2-phenylacryloyl)oxy)methyl)-4-phenyl-1,2,5-oxadiazole 2-oxide] | 94.5% | no

From publication PMC12693419, “Design, Synthesis, Biological Evaluation, and In Silico Studies of Novel Multitarget Cinnamic Acid Hybrids” (Molecules, 2025)
